{
  "source": "patent US12599606B2",
  "about": "“Therapies with 3rd generation EGFR tyrosine kinase inhibitors” (Janssen Biotech, Inc., priority 2019, dated 2026)",
  "key": {"[1]": {"tested_on": "EGFR mutation positive (EGFRm+) advanced NSCLC", "test": "Clinical Trial No. NCT03046992, phase I/II lazertinib monotherapy", "format": "in vivo, human", "conditions": "for ORR, (%): T790M+ patients", "description": "Clinical Trial No. NCT03046992 was primarily designed to evaluate the safety, tolerability, and efficacy of YH25448 in patients with EGFR mutation positive (EGFRm+) advanced NSCLC with or without asymptomatic brain metastasis who progressed following prior therapy with an EGFR TKIs agent.\nPatients with advanced and metastatic NSCLC who had progressed after treatment with EGFR-TKIs with/without asymptomatic brain metastases (BM) were enrolled in an open-label, multicenter, phase I/II study with dose-escalation and expansion cohorts. Lazertinib was administered once daily at doses between 20 to 320 mg in a 21-day cycle. Patients were assessed for safety, tolerability, pharmacokinetics and efficacy. T790M status was confirmed in the dose-expansion cohorts."}, "[2]": {"tested_on": "EGFR Dell9/T790M mutant lung adenocarcinoma", "conditions": "one patient, 40 mg daily, cited from earlier work"}, "[3]": {"tested_on": "H1975 human lung xenografts", "test": "H1975 human lung carcinoma xenograft model, antitumor activity", "protocol": "The animals were fed ad libitum water (reverse osmosis, 1 ppm Cl) and NIH 31 Modified and Irradiated Lab Diet® consisting of 18.0% crude protein, 5.0% crude fat, and 5.0% crude fiber. The mice were housed on irradiated Enrich-o'cobs™ Laboratory Animal Bedding in static microisolators on a 12-hour light cycle at 20-22° C. (68-72° F.) and at 40-60% humidity. All studies complied with the recommendations of the Guide for Care and Use of Laboratory Animals with respect to restraint, husbandry, surgical procedures, feed and fluid regulation, and veterinary care. […]\nOn the day of implant, the NCI-H1975 cells were harvested during log phase growth and resuspended in phosphate buffered saline (PBS) at a concentration of 5×10^7 cells/mL. Xenografts were initiated by subcutaneously implanting 5×10^6 NCI-H1975 cells per animal (0.1 mL suspension) into the right flank of each test animal and tumors were monitored as their volumes approached the target range of 150-200 mm^3. Fifteen days later, animals were sorted into bins by calculated tumor volumes based on vernier caliper measurements of tumor width and length to the nearest mm. […] Tumor size, in mm3, was calculated using the following formula: Tumor Volume=(w^2×l)/2 where w=width and l=length, in mm, of the tumor. […]"}, "[4]": {"test": "Body weight and clinical signs of nude mice bearing H1975 xenografts", "conditions": "for body weight loss compared to the control group: H1975-xenograft-bearing nude mice, Day 29, 10 mg/kg; for animals euthanized due to negative clinical signs: H1975 model, n=10/group, unclear whether due to tumor burden or treatment", "protocol": "The mice were housed on irradiated Enrich-o'cobs™ Laboratory Animal Bedding in static microisolators on a 12-hour light cycle at 20-22° C. (68-72° F.) and at 40-60% humidity.\n(§1) Female athymic nude mice were used in the studies (n=10/group). Treatment began when SC tumors reached approximately 100 to 300 mm^3 in size. and dosing was initiated according to the treatment plan summarized in Table 2. […] The control group was dosed with vehicle orally daily for 21 days, and the isotype control antibody was dosed twice a week IP for 3 weeks. Mice were monitored for body weight and tumor volume up to Day 95, and were euthanized when individual tumor volume reached 2,000 mm^3 or at study conclusion.\n(§2) Relative body weight of individual mice was calculated using the formula: (W/W0)×100, where ‘W’ represents body weight on a particular day, and ‘W0’ represents body weight at initiation of treatment. Body weight was graphically represented as mean % of initial body weight±SEM.\nTumor volume and body weight data were graphically represented using Prism software (GraphPad, version 7). Statistical significance was evaluated for all pairwise comparisons on the last day of the study when at least eight mice remained in each group. Differences between groups were considered significant when p≤0.05. Statistical significance of tumor volume and body weight was calculated using the Linear Mixed-Effects analysis in R software version 3.4.2 (using Janssen's internally developed Shiny application version 3.3), with treatment and time as fixed effects and animal as random effect. Logarithmic transformation (base 10) was performed if individual longitudinal response trajectories were not linear. The information derived from this model was used to make pairwise treatment comparisons to the control group or between all the treatment groups."}, "H1975-HGF xenografts": {"tested_on": "H1975-HGF xenografts", "test": "H1975-HGF human lung carcinoma xenograft model, antitumor activity", "protocol": "as §1\nTumor volume data were graphically represented as the mean tumor volume±SEM. Tumor volume was calculated using the formula: tumor volume (mm^3)=(D×d2)/2; where ‘D’ represents the larger diameter, and ‘d’ the smaller diameter of the tumor as determined by caliper measurements.\nThe % TGI was defined as the difference between mean tumor burden of the treated and control group, calculated as % ΔTGI=([(TVc−TVc0)−(TVt−TVt0)]/(TVc−TVc0))×100 where ‘TVc’ is the mean tumor burden of a given control group, ‘TVc0’ is the mean initial tumor burden of a given control group, ‘TVt’ is the mean tumor burden of the treated group, and ‘TVt0’ is the mean initial tumor burden of the treated group. […]\nSurvival data was graphed and analyzed using GraphPad Prism 7.04 for Windowswith day 1 as the treatment start date. […]"}, "[5]": {"test": "Body weight and clinical signs of nude mice bearing H1975-HGF xenografts", "format": "in vivo", "conditions": "H1975-HGF model, n=10/group; unclear whether due to tumor burden or treatment", "protocol": "as §1, §2\nTumor volume and body weight data were graphically represented using Prism software (GraphPad, version 7). Statistical significance was evaluated for all pairwise comparisons on the last day of the study when at least eight mice remained in each group. Differences between groups were considered significant when p≤0.05. Statistical significance of tumor volume and body weight was calculated using the Linear Mixed-Effects analysis in R software version 3.4.2 (using Janssen's internally developed Shiny application version 3.3), with treatment and time as fixed effects and animal as random effect. […]"}, "advanced NSCLC": {"tested_on": "advanced NSCLC", "test": "Study 61186372EDI1001, Phase 1 first-in-human dose escalation of JNJ-61186372 as monotherapy and in combination with lazertinib", "format": "in vivo", "quoted_text": "This study is a first-in-human, open-label, multicenter, 2-part, Phase 1 dose escalation study to evaluate the safety and PK, establish a recommended Phase 2 dose (RP2D) and recommended Phase 2 combination dose (RP2CD) regimen, and to assess the preliminary efficacy of JNJ-61186372 as a monotherapy and in combination with lazertinib in subjects who are≥18 years of age with advanced NSCLC.\nPart 1 JNJ-61186372 Monotherapy and Combination Dose Escalations: A traditional 3+3 design will be utilized to determine the MTD (or the maximum administered dose [MAD] if no MTD is defined) and the RP2D regimen(s) for JNJ-61186372 monotherapy, and the RP2CD of the JNJ-61186372 and lazertinib combination, in subjects with advanced NSCLC. The total number of subjects enrolled in each dose escalation will depend on the dose level at which the MTD or MAD is reached, and whether dose cohort expansions are indicated. […]\nAnti-tumor activity will be evaluated by clinical responses as per the Response Evaluation Criteria in Solid Tumors (RECIST v1.1) (Eisenhauer et al.., Eur J Cancer 2009;45(2):228-247) The investigator will evaluate sites of disease by radiological imaging, physical examination, and other procedures, as necessary, and all results will be recorded in the case report form (CRF). […]"}, "[6]": {"conditions": "monotherapy, EGFR-mutated NSCLC"}, "[7]": {"conditions": "Day 28, as compared to controls, 10 mg/kg"}},
  "data": [
    {"molecule": "C=CC(=O)Nc1cc(Nc2nccc(-n3cc(CN(C)C)c(-c4ccccc4)n3)n2)c(OC)cc1N1CCOCC1", "note": "[Lazertinib, N-(5-(4-(4-((dimethylamino)methyl)-3-phenyl-1H-pyrazol-1-yl)pyrimidin-2-ylamino)-4-methoxy-2-morpholinophenyl)acrylamide]", "values": [
      {"measurement": "systemic exposure", "setting": "[1]; 20 to 320 mg once daily", "result": "increased dose-dependently"},
      {"measurement": "ORR", "setting": "[1]; 93 T790M+ patients", "result": 69, "unit": "%"},
      {"measurement": "TEAE constipation", "setting": "[1]; 115 patients", "result": 12, "unit": "%"},
      {"measurement": "TEAE decreased appetite", "setting": "[1]; 115 patients", "result": 17, "unit": "%"},
      {"measurement": "TEAE of grade ≥3 hyponatraemia", "setting": "[1]; 115 patients", "result": 2, "unit": "%"},
      {"measurement": "TEAE of grade ≥3 nausea", "setting": "[1]; 115 patients", "result": 2, "unit": "%"},
      {"measurement": "TEAE of grade ≥3 pneumonia", "setting": "[1]; 115 patients", "result": 2, "unit": "%"},
      {"measurement": "TEAE pruritus", "setting": "[1]; 115 patients", "result": 19, "unit": "%"},
      {"measurement": "TEAE rash", "setting": "[1]; 115 patients", "result": 14, "unit": "%"},
      {"measurement": "tolerability", "setting": "[1]; EGFR T790M+ NSCLC patients, multiple dose levels", "result": "well tolerated"},
      {"measurement": "ORR, (%)", "setting": "[1]; 20 mg QD, 2 evaluable", "result": 100, "unit": "%"},
      {"measurement": "ORR, (%)", "setting": "[1]; 40 mg QD, 25 evaluable", "result": 68, "unit": "%"},
      {"measurement": "ORR, (%)", "setting": "[1]; 80 mg QD, 18 evaluable", "result": 61, "unit": "%"},
      {"measurement": "ORR, (%)", "setting": "[1]; 120 mg QD, 22 evaluable", "result": 77, "unit": "%"},
      {"measurement": "ORR, (%)", "setting": "[1]; 160 mg QD, 18 evaluable", "result": 61, "unit": "%"},
      {"measurement": "ORR, (%)", "setting": "[1]; 240 mg QD, 8 evaluable", "result": 75, "unit": "%"},
      {"measurement": "dose-limiting toxicities", "setting": "[1]; dose-escalation cohort, 38 patients, 20 to 320 mg", "result": "No dose-limiting toxicities were observed"},
      {"measurement": "objective response rate (ORR)", "setting": "[1]; evaluable patients (n=110) at data cut-off, 20 to 320 mg once daily", "result": 65, "unit": "%"},
      {"measurement": "DLTs", "setting": "[1]; monotherapy FIH dose escalation, through 320 mg", "result": "no DLTs were observed"},
      {"measurement": "dose from which clinical activity was demonstrated in the targeted population", "setting": "[1]; [6]", "result": 240, "unit": "mg"},
      {"measurement": "intracranial ORR", "setting": "[1]; patients with BM (n=12)", "result": 50, "unit": "%"},
      {"measurement": "extracranial tumor reduction", "setting": "[2]; tumor assessment after 6 weeks", "result": 12.7, "unit": "%"},
      {"measurement": "intracranial tumor reduction", "setting": "[2]; tumor assessment after 6 weeks", "result": 49.3, "unit": "%"},
      {"measurement": "overall tumor reduction", "setting": "[2]; tumor assessment after 6 weeks", "result": 25.9, "unit": "%"},
      {"measurement": "adverse events", "setting": "[2]", "result": "without significant adverse events"},
      {"measurement": "CR (complete tumor regression)", "setting": "[3]; n=10/group, mice with CR", "result": "1 of 10"},
      {"measurement": "body weight loss compared to the control group", "setting": "[4]", "result": "some transient body weight loss"},
      {"measurement": "animals euthanized due to negative clinical signs", "setting": "[4]", "result": "One"},
      {"measurement": "CR (complete tumor regression)", "setting": "H1975-HGF xenografts; n=10/group, mice with CR", "result": "2 of 10"}
    ]},
    {"molecule": "C=CC(=O)Nc1cc(Nc2nccc(-c3cn(C)c4ccccc34)n2)c(OC)cc1N(C)CCN(C)C", "note": "[Osimertinib, osimertinib, reference compound]", "values": [
      {"measurement": "mice found dead or euthanized due to negative clinical signs", "setting": "[5]", "result": "One"},
      {"measurement": "body weight loss compared to the control group", "setting": "[4]", "result": "some transient body weight loss"}
    ]},
    {"molecule": "JNJ-372", "values": [
      {"measurement": "DLTs", "setting": "advanced NSCLC; monotherapy FIH dose escalation, through 1400 mg", "result": "no DLTs were observed"},
      {"measurement": "dose from which clinical activity was demonstrated in the targeted population", "setting": "advanced NSCLC; [6]", "result": 700, "unit": "mg"},
      {"measurement": "TGI", "setting": "[3]; [7]", "result": 86, "unit": "%"},
      {"measurement": "mice found dead or euthanized due to negative clinical signs", "setting": "[5]", "result": "One"},
      {"measurement": "animals euthanized due to negative clinical signs", "setting": "[4]", "result": "One"},
      {"measurement": "TGI", "setting": "H1975-HGF xenografts; [7]", "result": 70, "unit": "%"}
    ]}
  ]
}
